Test results: ChEMBL document CHEMBL1141237, “Synthesis and activity of N-acyl azacyclic urea HIV-1 protease inhibitors with high potency against multiple drug resistant viral strains” (Bioorg Med Chem Lett, 2005)

Assays:
[1] = biological target: Human immunodeficiency virus type 1 protease (Human immunodeficiency virus 1) (UniProt Q72874); test: Inhibitory activity against HIV1 protease at 0.5 uM
[2] = test system: Human immunodeficiency virus 1; test: Antiviral activity against HIV1 in the absence of human serum; type: functional, organism-based
[3] = test system: Human immunodeficiency virus 1; test: Antiviral activity against HIV1 in the presence of 50% human serum; type: functional, organism-based
[4] = test system: Human immunodeficiency virus; test: Antiviral activity against indinavir resistant HIV IND-R mutant strain; type: functional, organism-based; settings: Human immunodeficiency virus 1, IND-R
[5] = test system: Human immunodeficiency virus; test: Antiviral activity against Lopinavir resistant HIV A17 mutant strain; type: functional, organism-based; settings: Human immunodeficiency virus 1, A17
[6] = biological target: Human immunodeficiency virus type 1 protease (Human immunodeficiency virus 1, UniProt Q72874); test: Inhibitory activity against HIV1 protease
[7] = biological target: Human immunodeficiency virus type 1 protease (Human immunodeficiency virus 1) (UniProt Q72874); test: Inhibitory activity against HIV1 protease at 1 uM

Work on `COc1cc(CN2C(=O)N(Cc3ccc(O)c(OC)c3)N(C(=O)CC(C)C)C[C@@H](O)[C@H]2Cc2ccccc2)ccc1O` yielded an inhibition [1] of 73%, an EC50 [2] of 9 nM and an EC50 [3] of 27 nM. For the same molecule, the EC50 [4] was 94 nM and the EC50 [5] was 586 nM.
`COc1cc(CN2C(=O)N(Cc3ccc(O)c(OC)c3)N(C(=O)CCc3ccccc3)C[C@@H](O)[C@H]2Cc2ccccc2)ccc1O` was tested, and the inhibition [1] was 55%, the EC50 [2] was 4 nM and the EC50 [3] was 28 nM. The EC50 [4] was 49 nM and the EC50 [5] was 102 nM.
Work on `COc1ccc(CCC(=O)N2C[C@@H](O)[C@@H](Cc3ccccc3)N(Cc3ccc(O)c(OC)c3)C(=O)N2Cc2ccc(O)c(OC)c2)cc1` yielded an inhibition [1] of 67%, an EC50 [2] of 6 nM and an EC50 [3] of 48 nM. The EC50 [4] was 88 nM and the EC50 [5] was 133 nM.
Work on `O=C(CCc1ccccc1)N1C[C@@H](O)[C@@H](Cc2ccccc2)N(Cc2ccc(O)cc2)C(=O)N1Cc1ccc(O)cc1` yielded an inhibition [1] of 76%, an EC50 [2] of 17 nM and an EC50 [4] of 14 nM. The EC50 [5] was 192 nM.
Molecule `Nc1[nH]nc2ccc(CN3C(=O)N(Cc4ccccc4)[C@H](Cc4ccccc4)[C@H](O)CN3C(=O)CCc3ccccc3)cc12` has an inhibition [1] of 48%, an EC50 [2] of 50 nM and an EC50 [4] of 102 nM. The EC50 [5] was 897 nM.
With `COc1cc(CN2C(=O)N(Cc3ccc(O)c(OC)c3)N(C(=O)CN3CCCC3)C[C@@H](O)[C@H]2Cc2ccccc2)ccc1O` the IC50 [6] was 7.9 nM, the EC50 [2] was 572 nM and the EC50 [3] was 490 nM.
For `O=C(CCc1ccccc1)N1C[C@@H](O)[C@@H](Cc2ccccc2)N(Cc2ccccc2)C(=O)N1Cc1ccc2[nH]ncc2c1`, the inhibition [1] was 66%, the EC50 [2] was 45 nM and the EC50 [4] was 821 nM. The EC50 [5] was 1070 nM.
`COc1cc(CN2C(=O)N(Cc3ccc(O)c(OC)c3)N(C(=O)CCc3ccc(O)cc3)C[C@@H](O)[C@H]2Cc2ccccc2)ccc1O` showed an inhibition [1] of 73%, an EC50 [2] of 61 nM and an EC50 [3] of 165 nM.
For `COc1cc(CN2C(=O)N(Cc3ccc(O)c(OC)c3)N(C(=O)CCc3ccco3)C[C@@H](O)[C@H]2Cc2ccccc2)ccc1O`, the inhibition [1] was 73%, the EC50 [2] was 3 nM and the EC50 [3] was 16 nM. For the same molecule, the EC50 [4] was 81 nM and the EC50 [5] was 455 nM.
Work on `COc1cccc(CCC(=O)N2C[C@@H](O)[C@@H](Cc3ccccc3)N(Cc3ccc(O)c(OC)c3)C(=O)N2Cc2ccc(O)c(OC)c2)c1` yielded an inhibition [1] of 67%, an EC50 [2] of 4 nM and an EC50 [3] of 62 nM.
`N/C(=N/O)c1cccc(CN2C(=O)N(Cc3ccccc3)N(C(=O)CCc3ccccc3)C[C@@H](O)[C@H]2Cc2ccccc2)c1` gave an inhibition [1] of 73%, an EC50 [2] of 45 nM and an EC50 [5] of 2020 nM.
`COc1cc(CN2C(=O)N(Cc3ccc(O)c(OC)c3)N(C(=O)CCc3ccoc3)C[C@@H](O)[C@H]2Cc2ccccc2)ccc1O` showed an inhibition [1] of 68%, an EC50 [2] of 9 nM and an EC50 [3] of 18 nM. The EC50 [4] was 227 nM and the EC50 [5] was 562 nM.
`COc1cc(CN2C(=O)N(Cc3ccc(O)c(OC)c3)N(C(=O)CCc3ccc(F)cc3)C[C@@H](O)[C@H]2Cc2ccccc2)ccc1O` gave an inhibition [1] of 67%, an EC50 [2] of 4 nM and an EC50 [3] of 28 nM. The EC50 [4] was 164 nM and the EC50 [5] was 189 nM.
In the case of `COc1cc(CN2C(=O)N(Cc3ccc(O)c(OC)c3)N(C(=O)CCCCN3CCOCC3)C[C@@H](O)[C@H]2Cc2ccccc2)ccc1O`, the IC50 [6] is reported as 2.1 nM, the EC50 [2] is reported as 86 nM and the EC50 [3] is reported as 480 nM. The EC50 [4] was 1040 nM and the EC50 [5] was greater than 10000 nM.
`COc1cc(CN2C(=O)N(Cc3ccc(O)c(OC)c3)N(C(=O)COc3ccccc3)C[C@@H](O)[C@H]2Cc2ccccc2)ccc1O` gave an inhibition [1] of 53%, an EC50 [2] of 929 nM and an EC50 [3] of 5150 nM.
In the case of `CC(C)CC(=O)N1C[C@@H](O)[C@@H](Cc2ccccc2)N(Cc2cccc(N)c2)C(=O)N1Cc1cccc(N)c1`, the inhibition [1] is reported as 66%, the EC50 [2] is reported as 37 nM and the EC50 [5] is reported as 2070 nM.
Molecule `COc1cc(CN2C(=O)N(Cc3ccc(O)c(OC)c3)N(C(=O)CCCc3cccs3)C[C@@H](O)[C@H]2Cc2ccccc2)ccc1O` has an inhibition [1] of 64%, an EC50 [2] of 4 nM and an EC50 [3] of 56 nM.
`Nc1cccc(CN2C(=O)N(Cc3ccc4[nH]ncc4c3)N(C(=O)CCc3ccccc3)C[C@@H](O)[C@H]2Cc2ccccc2)c1` showed an inhibition [1] of 74%, an EC50 [2] of 13 nM and an EC50 [4] of 23 nM. It also gave an EC50 [5] of 98 nM.
With `COc1cc(CN2C(=O)N(Cc3ccc(O)c(OC)c3)N(C(=O)CCc3ccncc3)C[C@@H](O)[C@H]2Cc2ccccc2)ccc1O` the IC50 [6] was 1.2 nM, the EC50 [2] was 212 nM and the EC50 [3] was 546 nM.
`COc1cc(CN2C(=O)N(Cc3ccc(N)c(OC)c3)N(C(=O)CCc3ccccc3)C[C@@H](O)[C@H]2Cc2ccccc2)ccc1N` was tested, and the inhibition [1] was 88%, the EC50 [2] was 53 nM and the EC50 [4] was 504 nM. It also gave an EC50 [5] of 464 nM.
`COc1cc(CN2C(=O)N(Cc3ccc(O)c(OC)c3)N(C(=O)CCc3cccnc3)C[C@@H](O)[C@H]2Cc2ccccc2)ccc1O` gave an inhibition [1] of 58%, an EC50 [2] of 54 nM and an EC50 [3] of 353 nM.
`COc1cc(CN2C(=O)N(Cc3ccc(O)c(OC)c3)N(C(=O)CCCN3CCOCC3)C[C@@H](O)[C@H]2Cc2ccccc2)ccc1O` showed an IC50 [6] of 3.8 nM, an EC50 [2] of 308 nM and an EC50 [3] of 576 nM.
`COc1cc(CN2C(=O)N(Cc3ccc(O)c(OC)c3)N(C(=O)CCCC3CCCO3)C[C@@H](O)[C@H]2Cc2ccccc2)ccc1O` (some centres not stated) was tested, and the inhibition [1] was 76%, the EC50 [2] was 9 nM and the EC50 [3] was 77 nM.
Molecule `CC(C)CC(=O)N1C[C@@H](O)[C@@H](Cc2ccccc2)N(Cc2ccc(O)cc2)C(=O)N1Cc1ccc(O)cc1` has an inhibition [1] of 65%, an EC50 [2] of 30 nM and an EC50 [4] of 171 nM. It also gave an EC50 [5] of 312 nM.
In the case of `CC(C)CC(=O)N1C[C@@H](O)[C@@H](Cc2ccccc2)N(Cc2ccc(N)cc2)C(=O)N1Cc1ccc(N)cc1`, the EC50 [2] is reported as 150 nM and the inhibition [7] is reported as 56%.
`COc1cc(CN2C(=O)N(Cc3ccc(O)c(OC)c3)N(C(=O)CCc3ccc(OC)c(OC)c3)C[C@@H](O)[C@H]2Cc2ccccc2)ccc1O` showed an inhibition [1] of 72%, an EC50 [2] of 15 nM and an EC50 [3] of 47 nM.
`CC(C)c1nc(CN(C)C(=O)N[C@H](C(=O)N[C@@H](Cc2ccccc2)C[C@H](O)[C@H](Cc2ccccc2)NC(=O)OCc2cncs2)C(C)C)cs1` [RITONAVIR] showed an EC50 [2] of 22 nM, an EC50 [3] of 483 nM and an EC50 [5] of 1240 nM.
`COc1cc(CN2C(=O)N(Cc3ccc(O)c(OC)c3)N(Cc3ccccc3)C[C@@H](O)[C@H]2Cc2ccccc2)ccc1O` gave an inhibition [1] of 81%, an EC50 [2] of 4 nM and an EC50 [3] of 29 nM.
`Cc1cccc(C)c1OCC(=O)N[C@@H](Cc1ccccc1)[C@@H](O)C[C@H](Cc1ccccc1)NC(=O)[C@H](C(C)C)N1CCCNC1=O` [LOPINAVIR] gave an EC50 [2] of 16 nM, an EC50 [3] of 67 nM and an EC50 [4] of 385 nM. For the same molecule, the EC50 [5] was 1060 nM.
For `N/C(=N/O)c1cccc(CN2C(=O)N(Cc3ccc4[nH]ncc4c3)N(C(=O)CCc3ccccc3)C[C@@H](O)[C@H]2Cc2ccccc2)c1`, the inhibition [1] was 90%, the EC50 [2] was 74 nM and the EC50 [4] was 58 nM. It also gave an EC50 [5] of 84 nM.
In the case of `COc1cc(CN2C(=O)N(Cc3ccc(O)c(OC)c3)N(C(=O)CC3CCCC3)C[C@@H](O)[C@H]2Cc2ccccc2)ccc1O`, the inhibition [1] is reported as 66%, the EC50 [2] is reported as 3 nM and the EC50 [3] is reported as 60 nM. The EC50 [4] was 132 nM and the EC50 [5] was 367 nM.
`COc1cc(CN2C(=O)N(Cc3ccc(O)c(OC)c3)N(C(=O)CN3CCNCC3)C[C@@H](O)[C@H]2Cc2ccccc2)ccc1O` showed an IC50 [6] of 6.1 nM, an EC50 [2] of 1490 nM and an EC50 [3] of 3220 nM.
In the case of `COc1cc(CN2C(=O)N(Cc3ccc(O)c(OC)c3)N(C(=O)CCCc3ccccc3)C[C@@H](O)[C@H]2Cc2ccccc2)ccc1O`, the inhibition [1] is reported as 75%, the EC50 [2] is reported as 5 nM and the EC50 [3] is reported as 27 nM.
`COc1cc(CN2C(=O)N(Cc3ccc(O)c(OC)c3)N(C(=O)CCc3ccc4c(c3)OCO4)C[C@@H](O)[C@H]2Cc2ccccc2)ccc1O` gave an inhibition [1] of 73%, an EC50 [2] of 4 nM and an EC50 [3] of 56 nM. It also gave an EC50 [4] of 54 nM and an EC50 [5] of 65 nM.
